PMC12514245, “Impaired migration and lung invasion of human melanoma by a novel small molecule targeting the transmembrane domain of death receptor p75^NTR” (EMBO Molecular Medicine, 2025)
“And” between values parts separate entries of the source, which are not always exact repeats. Equal entries are not always repeated.

Experiments:
Format in all cases: cell-based
[1] = biological target: T1, p75^NTR TMD (Homo sapiens, UniProt P08138); test: AraTM assay, wild-type p75NTR TMD (GFP/OD630); details: for GFP/OD630, p75NTR WT, Mean / GFP/OD630, p75, mean: N=3; for GFP/OD630, p75NTR WT, n1-n3: WT without drug = 100%; for GFP/OD630, Mean / GFP/OD630, individual replicates: Figure 5B
T1 sequence (P08138 250-275 limits assumed): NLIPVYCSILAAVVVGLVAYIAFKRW

[2] = biological target: T2, p75^NTR TMD V254A (Homo sapiens, UniProt P08138, V254A); test: AraTM assay, V254A mutant p75NTR TMD; details: for GFP/OD630, p75NTR V254A, Mean: N=3
T2 construct: Comparison of wild-type (WT) p75^NTR TMD and I252A, P253G and V254A mutants in the AraTM assay; expressed in transfected cells; host or cells: E. coli AS19 (LPS-negative)
T2 sequence (P08138 250-275 V254A): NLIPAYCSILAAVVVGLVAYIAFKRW

[3] = biological target: T3, p75^NTR TMD I252A (Homo sapiens, UniProt P08138, I252A); test: AraTM assay, I252A mutant p75NTR TMD; details: for GFP/OD630, p75NTR I252A, Mean: N=3
T3 construct: Comparison of wild-type (WT) p75^NTR TMD and I252A, P253G and V254A mutants in the AraTM assay; expressed in transfected cells; host or cells: E. coli AS19 (LPS-negative)
T3 sequence (P08138 250-275 I252A): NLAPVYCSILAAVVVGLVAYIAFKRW

**Q.** With `Oc1ccc(-c2cncc(Nc3ccc(Br)c(Cl)c3)n2)cc1` [Div17E5] as the compound, how does the “GFP/OD630, p75NTR WT, Mean” value ([1]; Div17E5 7.5 uM) read?
**A.** The value was 69%.

**Q.** And the “GFP/OD630, p75NTR WT, n1-n3” value ([1]; Div17E5 7.5 uM)?
**A.** The value was 70% and 62% and 76%.

**Q.** What about the “GFP/OD630, p75, single replicates” value ([1]; Div17E5 10 μM) of the same compound?
**A.** The value was 49 and 55 and 68.

**Q.** What about the “GFP/OD630, p75, mean” value ([1]; Div17E5 10 μM) of the same compound?
**A.** Its value is 57.

**Q.** What about the “GFP/OD630, p75NTR WT, Mean” value ([1]; Div17E5 15 uM) of the same compound?
**A.** Its value is 61%.

**Q.** What about the “GFP/OD630, p75NTR WT, n1-n3” value ([1]; Div17E5 15 uM) of the same compound?
**A.** Its value is 62% and 58% and 63%.

**Q.** What about the “GFP/OD630, p75, single replicates” value ([1]; Div17E5 20 μM) of the same compound?
**A.** The value was 39 and 55 and 49.

**Q.** And the “GFP/OD630, p75NTR WT, Mean” value ([1]; Div17E5 20 uM)?
**A.** Its value is 45%.

**Q.** What about the “GFP/OD630, p75, mean” value ([1]; Div17E5 20 μM) of the same compound?
**A.** Its value is 48.

**Q.** What about the “GFP/OD630, p75NTR WT, n1-n3” value ([1]; Div17E5 20 uM) of the same compound?
**A.** Its value is 50% and 41% and 44%.

**Q.** What about the “GFP/OD630, p75, single replicates” value ([1]; Div17E5 50 μM) of the same compound?
**A.** Its value is 33 and 42 and 39.

**Q.** And the “GFP/OD630, p75NTR WT, Mean” value ([1]; Div17E5 50 uM)?
**A.** Its value is 45%.

**Q.** What about the “GFP/OD630, p75, mean” value ([1]; Div17E5 50 μM) of the same compound?
**A.** The value was 38.

**Q.** And the “GFP/OD630, p75NTR WT, n1-n3” value ([1]; Div17E5 50 uM)?
**A.** The value was 43% and 46% and 47%.

**Q.** And the “GFP/OD630, Mean” value ([1]; compound 2 μM)?
**A.** Its value is 0.93.

**Q.** And the “GFP/OD630, individual replicates” value ([1]; compound 2 μM)?
**A.** The value was 0.98 and 0.93 and 0.88.

**Q.** What about the “GFP/OD630, Mean” value ([1]; compound 4 μM) of the same compound?
**A.** The value was 0.86.

**Q.** What about the “GFP/OD630, individual replicates” value ([1]; compound 4 μM) of the same compound?
**A.** Its value is 0.83 and 0.92 and 0.82.

**Q.** And the “GFP/OD630, Mean” value ([1]; compound 6 μM)?
**A.** The value was 0.82.

**Q.** And the “GFP/OD630, individual replicates” value ([1]; compound 6 μM)?
**A.** Its value is 0.86 and 0.78 and 0.83.

**Q.** And the “GFP/OD630, Mean” value ([1]; compound 8 μM)?
**A.** The value was 0.44.

**Q.** And the “GFP/OD630, individual replicates” value ([1]; compound 8 μM)?
**A.** The value was 0.43 and 0.51 and 0.37.

**Q.** And the “GFP/OD630, Mean” value ([1]; compound 10 μM)?
**A.** Its value is 0.43.

**Q.** And the “GFP/OD630, individual replicates” value ([1]; compound 10 μM)?
**A.** The value was 0.41 and 0.48 and 0.40.

**Q.** And the IC50 ([1]; dose-response)?
**A.** The IC50 was 12 µM.

**Q.** What about the “selectivity for the p75NTR TMD as compared to TMDs of two unrelated proteins” value ([1]; vs α2β3 integrin and M2 TMDs) of the same compound?
**A.** Its value is “good selectivity”.

**Q.** And the “effect of Val254 mutation on compound activity in AraTM assay” value [2]?
**A.** Its value is “abolished”.

**Q.** What about the “GFP/OD630, p75NTR V254A, n1-n3” value ([2]; Div17E5 7.5 uM) of the same compound?
**A.** Its value is 87% and 97% and 91%.

**Q.** And the “GFP/OD630, p75NTR V254A, Mean” value ([2]; Div17E5 7.5 uM)?
**A.** The value was 92%.

**Q.** What about the “GFP/OD630, p75NTR V254A, n1-n3” value ([2]; Div17E5 15 uM) of the same compound?
**A.** Its value is 86% and 95% and 96%.

**Q.** What about the “GFP/OD630, p75NTR V254A, Mean” value ([2]; Div17E5 15 uM) of the same compound?
**A.** The value was 92%.

**Q.** And the “GFP/OD630, p75NTR V254A, n1-n3” value ([2]; Div17E5 20 uM)?
**A.** Its value is 89% and 96% and 99%.

**Q.** And the “GFP/OD630, p75NTR V254A, Mean” value ([2]; Div17E5 20 uM)?
**A.** Its value is 95%.

**Q.** What about the “GFP/OD630, p75NTR V254A, n1-n3” value ([2]; Div17E5 50 uM) of the same compound?
**A.** Its value is 95% and 85% and 98%.

**Q.** What about the “GFP/OD630, p75NTR V254A, Mean” value ([2]; Div17E5 50 uM) of the same compound?
**A.** The value was 93%.

**Q.** And the “effect of Ile252 mutation on compound activity in AraTM assay” value [3]?
**A.** The value was “abolished”.

**Q.** What about the “GFP/OD630, p75NTR I252A, n1-n3” value ([3]; Div17E5 7.5 uM) of the same compound?
**A.** The value was 99% and 104% and 92%.

**Q.** And the “GFP/OD630, p75NTR I252A, Mean” value ([3]; Div17E5 7.5 uM)?
**A.** Its value is 98%.

**Q.** And the “GFP/OD630, p75NTR I252A, n1-n3” value ([3]; Div17E5 15 uM)?
**A.** The value was 98% and 107% and 87%.

**Q.** And the “GFP/OD630, p75NTR I252A, Mean” value ([3]; Div17E5 15 uM)?
**A.** Its value is 97%.

**Q.** And the “GFP/OD630, p75NTR I252A, n1-n3” value ([3]; Div17E5 20 uM)?
**A.** The value was 96% and 91% and 100%.

**Q.** What about the “GFP/OD630, p75NTR I252A, Mean” value ([3]; Div17E5 20 uM) of the same compound?
**A.** Its value is 96%.

**Q.** What about the “GFP/OD630, p75NTR I252A, n1-n3” value ([3]; Div17E5 50 uM) of the same compound?
**A.** The value was 99% and 106% and 92%.

**Q.** What about the “GFP/OD630, p75NTR I252A, Mean” value ([3]; Div17E5 50 uM) of the same compound?
**A.** The value was 99%.
